# Key:
# AMPK beta 1 = biological target: T1, AMPK beta 1 (Homo sapiens, UniProt Q13131+Q9Y478); experiment: in-cell-ELISA for phospho-ACC: activation of AMPK, beta 1 (HepG2 cells / C2C12 myotubes); type: cell-based; conditions: 2 h, percentage activation over vehicle control; for activation at 1 µM / activation at 10 µM / activation at 3 µM: read-out: Percentage activation of beta 1 at given concentration
# T1 construct: in-cell-ELISA for phospho-ACC (Acetyl-CoA carboxylase 1) in HepG2 cells (liver); endogenous in cells; host or cells: HepG2 (assignment to the beta 1 column inferred)
# T1 sequence (Q9Y478 2-270 limits assumed): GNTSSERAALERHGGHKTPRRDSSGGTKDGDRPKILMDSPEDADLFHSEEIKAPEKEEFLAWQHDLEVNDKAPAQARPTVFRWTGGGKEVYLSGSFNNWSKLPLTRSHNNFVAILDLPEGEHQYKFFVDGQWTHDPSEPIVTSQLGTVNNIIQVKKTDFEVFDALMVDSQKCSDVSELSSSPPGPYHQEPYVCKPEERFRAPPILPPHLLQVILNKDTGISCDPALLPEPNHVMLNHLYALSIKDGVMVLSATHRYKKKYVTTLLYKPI
# T1 sequence (Q13131 whole entry): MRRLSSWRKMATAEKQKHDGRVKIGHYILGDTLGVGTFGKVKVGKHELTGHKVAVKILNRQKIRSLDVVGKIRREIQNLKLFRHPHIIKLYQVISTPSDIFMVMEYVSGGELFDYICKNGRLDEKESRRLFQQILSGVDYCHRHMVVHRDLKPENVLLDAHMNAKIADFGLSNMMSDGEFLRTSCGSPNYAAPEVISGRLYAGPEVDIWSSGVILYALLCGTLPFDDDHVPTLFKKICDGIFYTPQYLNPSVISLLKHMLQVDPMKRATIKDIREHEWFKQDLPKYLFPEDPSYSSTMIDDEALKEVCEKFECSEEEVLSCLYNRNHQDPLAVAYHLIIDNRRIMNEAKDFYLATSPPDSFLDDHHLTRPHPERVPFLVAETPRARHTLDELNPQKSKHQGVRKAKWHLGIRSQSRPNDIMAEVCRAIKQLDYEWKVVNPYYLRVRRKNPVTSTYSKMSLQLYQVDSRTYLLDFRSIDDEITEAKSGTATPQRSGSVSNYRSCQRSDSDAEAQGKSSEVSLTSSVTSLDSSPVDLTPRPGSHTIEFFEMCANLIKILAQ
# T1 sequence (P54619 whole entry partner): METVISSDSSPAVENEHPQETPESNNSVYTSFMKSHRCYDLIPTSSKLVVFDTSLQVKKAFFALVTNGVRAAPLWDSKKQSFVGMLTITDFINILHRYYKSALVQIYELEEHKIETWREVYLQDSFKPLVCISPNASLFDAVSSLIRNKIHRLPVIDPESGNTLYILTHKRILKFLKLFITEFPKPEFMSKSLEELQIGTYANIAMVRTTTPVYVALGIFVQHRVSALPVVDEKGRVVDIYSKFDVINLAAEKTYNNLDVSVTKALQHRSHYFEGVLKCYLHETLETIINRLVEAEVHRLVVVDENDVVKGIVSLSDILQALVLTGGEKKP
# Description: (§1) Activation of AMPK by various compounds were measured using in-cell-ELISA for phospho-ACC (Acetyl-CoA carboxylase 1) in HepG2 cells (liver) and fully differentiated myotubes (C2C12 cells) grown in 96 well plate. Cells were treated with 1 μM, 3 μM or 10 μM of the molecule (Example) for 2 h in serum free DMEM media. After methanol fixation, cells were blocked with BSA followed by addition of anti-phospho ACC antibody (Cell Signaling) and HRP conjugated secondary antibody. Absorbance values taken at 450 nm were normalized with total DNA (Hoechest stain). Results were expressed as percentage activation over vehicle control.
# (§2) Percentage activation at compound (Example) concentration of 1, 3 or 10 μM for compounds according to the invention are shown in the following table. The number of the compound corresponds to the number of the Example (Ex) in the experimental section.
# AMPK beta 2 = biological target: T2, AMPK beta 2 (Mus musculus, UniProt Q6PAM0+Q8BRK8); experiment: in-cell-ELISA for phospho-ACC: activation of AMPK, beta 2 (HepG2 cells / C2C12 myotubes); type: cell-based; conditions: 2 h, 3 μM, percentage activation over vehicle control, read-out: Percentage activation of beta 2 at given concentration
# T2 construct: fully differentiated myotubes (C2C12 cells) grown in 96 well plate; endogenous in cells; host or cells: C2C12 myotubes (assignment to the beta 2 column inferred)
# T2 sequence (Q6PAM0 whole entry): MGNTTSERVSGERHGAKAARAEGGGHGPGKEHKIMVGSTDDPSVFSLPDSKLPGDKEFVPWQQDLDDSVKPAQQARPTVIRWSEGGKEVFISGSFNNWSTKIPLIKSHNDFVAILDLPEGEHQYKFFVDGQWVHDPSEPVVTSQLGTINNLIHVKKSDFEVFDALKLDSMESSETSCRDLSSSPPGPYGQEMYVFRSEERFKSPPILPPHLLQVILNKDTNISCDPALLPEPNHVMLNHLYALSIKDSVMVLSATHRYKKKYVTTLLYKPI
# T2 sequence (Q8BRK8 whole entry): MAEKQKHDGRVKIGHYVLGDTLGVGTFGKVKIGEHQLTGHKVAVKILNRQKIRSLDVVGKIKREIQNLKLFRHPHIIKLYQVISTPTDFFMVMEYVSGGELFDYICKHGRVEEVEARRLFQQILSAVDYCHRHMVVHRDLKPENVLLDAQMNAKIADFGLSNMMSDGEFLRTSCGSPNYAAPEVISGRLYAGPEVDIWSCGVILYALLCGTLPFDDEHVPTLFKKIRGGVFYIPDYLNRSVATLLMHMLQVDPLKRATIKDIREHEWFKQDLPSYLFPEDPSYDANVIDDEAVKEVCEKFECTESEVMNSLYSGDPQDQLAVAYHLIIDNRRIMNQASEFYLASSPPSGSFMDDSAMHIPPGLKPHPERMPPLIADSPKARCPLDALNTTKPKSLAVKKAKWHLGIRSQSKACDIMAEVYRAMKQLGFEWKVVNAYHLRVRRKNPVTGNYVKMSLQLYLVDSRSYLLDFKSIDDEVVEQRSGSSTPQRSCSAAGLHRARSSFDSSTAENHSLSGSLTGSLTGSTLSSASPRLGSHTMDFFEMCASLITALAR
# T2 sequence (O54950 whole entry partner): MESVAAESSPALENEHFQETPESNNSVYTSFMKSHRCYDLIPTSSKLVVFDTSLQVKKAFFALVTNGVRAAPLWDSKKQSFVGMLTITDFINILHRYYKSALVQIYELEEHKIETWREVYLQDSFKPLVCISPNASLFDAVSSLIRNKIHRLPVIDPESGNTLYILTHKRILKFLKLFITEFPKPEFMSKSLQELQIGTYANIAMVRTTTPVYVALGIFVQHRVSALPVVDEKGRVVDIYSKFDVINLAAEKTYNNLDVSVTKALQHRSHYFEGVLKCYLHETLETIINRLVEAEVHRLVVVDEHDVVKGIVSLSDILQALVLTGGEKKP
# Description: as §1, §2
SMILES,activation at 10 µM (AMPK beta 1; 10 μM),activation at 3 µM (AMPK beta 1; 3 μM),further results
CC(C)(C(=O)O)c1ccc(C2CC23C(=O)Nc2cc(Cl)c(-c4ccc(-c5ccccc5O)cc4)cc23)cc1 (stereo not shown) [Example 38],,,activation at 1 µM (AMPK beta 1; 1 μM): 58%; activation at 3 µM (AMPK beta 2): 106%
Cc1ccc(C2CC23C(=O)Nc2cc(Cl)c(-c4ccc(-c5ccncc5)cc4)nc23)cc1C(=O)O (stereo not shown) [Example 83],92%,,
Cc1ccc(C2CC23C(=O)Nc2cc(Cl)c(S(=O)(=O)NC4CCC4)cc23)cc1C(=O)O (stereo not shown) [Example 91],10%,,
Cc1ccc(C2CC23C(=O)Nc2cc(Cl)c(-c4ccc(C5(CO)CC5)cc4)cc23)cc1C(=O)O (stereo not shown) [Example 45],,,Percentage activation of beta 1 at given concentration (AMPK beta 1; 10 μM): 80% at 10 μM
COc1ccc(C2CC23C(=O)Nc2cc(F)c(-c4ccc(-c5ccncc5)cc4)cc23)cc1C(=O)O (stereo not shown) [Example 84],75%,,
Cc1ccc(C2CC23C(=O)Nc2cc(F)c(-c4ccc(-c5ccc6c(cnn6C)c5)cc4)cc23)cc1C(=O)O (stereo not shown) [Example 160],,,activation at 1 µM (AMPK beta 1; 1 μM): 11%
Cc1ccc(C2CC23C(=O)Nc2cc(Cl)c(-c4ccc(N5CCOCC5)c(F)c4)cc23)cc1C(=O)O (stereo not shown) [Example 71],40%,,
Cc1ccc(C2CC23C(=O)N(C)c2cc(Cl)c(-c4ccc(-c5ncccc5O)cc4)cc23)cc1C(=O)O (stereo not shown) [Example 36],39%,,
COc1ccc(C2CC23C(=O)Nc2cc(Cl)c(-c4ccc(-c5ccncc5)cc4)cc23)cc1C(=O)O (stereo not shown) [Example 73],23%,,
Cc1ccc(C2CC23C(=O)Nc2cc(Cl)c(-c4ccc(-c5ccncc5O)cc4)cc23)cc1C(=O)O (stereo not shown) [Example 21],,93%,
Cc1ccc(C2CC23C(=O)Nc2cc(Cl)c(-c4ccc5c(ccn5CCO)c4)cc23)cc1C(=O)O (stereo not shown) [Example 47],72%,,
O=C(O)c1cccc(C2CC23C(=O)Nc2cc(F)c(-c4ccc(-c5ccccc5O)cc4)cc23)c1 (stereo not shown) [Example 1],102%,,
Cc1ccc(C2CC23C(=O)Nc2cc(Cl)c(-c4ccc(-c5ccccc5O)cn4)cc23)cc1CC(=O)O (stereo not shown) [Example 19],,43%,
O=C(O)Cc1cccc(C2CC23C(=O)Nc2cc(Cl)c(-c4ccc(-c5ccncc5)cc4)cc23)c1 (stereo not shown) [Example 58],,,Percentage activation of beta 1 at given concentration (AMPK beta 1; 3 μM): 47% at 3 μM
Cc1ccc(C2CC23C(=O)Nc2cc(Cl)c(-c4ccc(-c5ccc(-n6cncn6)cc5)c(F)c4)cc23)cc1C(=O)O (stereo not shown) [Example 152],,,Percentage activation of beta 1 at given concentration (AMPK beta 1; 1 μM): 95% at 1 μM
Cc1ccc(C2CC23C(=O)Nc2cc(F)c(-c4ccc(-c5ccc(-n6cncn6)cc5)cc4)cc23)cc1C(=O)O (stereo not shown) [Example 147],,,Percentage activation of beta 1 at given concentration (AMPK beta 1; 1 μM): 32% at 1 μM
O=C(O)Cc1cccc(C2CC23C(=O)Nc2cc(F)c(-c4ccc(-c5ccc(-n6cccn6)cc5)cc4)cc23)c1 (stereo not shown) [Example 171],,,activation at 1 µM (AMPK beta 1; 1 μM): 44%
Cc1ccc(C2CC23C(=O)Nc2cc(Cl)c(-c4ccc(-c5ccncc5)cc4)cc23)cc1CC(=O)O (stereo not shown) [Example 63],,,activation at 1 µM (AMPK beta 1; 1 μM): 42%
Cc1ccc(C2CC23C(=O)Nc2cc(Cl)c(-c4ccc(-c5ccccn5)cc4)cc23)cc1C(=O)O (stereo not shown) [Example 78],66%,,

SMILES,activation at 10 µM (AMPK beta 1; 10 μM),activation at 3 µM (AMPK beta 1; 3 μM),further results
Cc1ccc(C2CC23C(=O)Nc2cc(Cl)c(-c4ccc(O)cc4)cc23)cc1C(=O)O (stereo not shown) [Example 29],40%,,
O=C(O)Cc1cccc(C2CC23C(=O)Nc2cc(Cl)c(-c4ccc(-c5ccc(-n6cncn6)cc5)cc4)cc23)c1 (stereo not shown) [Example 129],,15%,
O=C(O)Cc1cccc(C2CC23C(=O)Nc2cc(Cl)c(-c4ccc(-c5cccnc5)cc4)cc23)c1 (stereo not shown) [Example 65],89%,,
CCn1cc(C2CC23C(=O)Nc2cc(Cl)c(-c4ccc(-c5ccccc5O)cc4)cc23)cc1C(=O)O (stereo not shown) [Example 39],28%,,
O=C(O)c1cccc(C2CC23C(=O)Nc2cc(F)c(-c4ccc(-c5ccccc5O)cc4)cc23)c1 (stereo not shown) [Example 2],,60%,
Cc1ccc(C2CC23C(=O)Nc2cc(Cl)c(-c4ccc(-c5cnn(C)c5)cc4)cc23)cc1C(=O)O (stereo not shown) [Example 85],127%,,
Cc1ccc(C2CC23C(=O)Nc2cc(F)c(-c4ccc(-c5ccncc5)cc4)cc23)cc1C(=O)O (stereo not shown) [Example 81],,55%,
CC(C)c1ccc(C2CC23C(=O)Nc2cc(Cl)c(-c4ccc(-c5ccc(-n6cncn6)cc5)cc4)cc23)cc1C(=O)O (stereo not shown) [Example 131],,47%,
Cc1ccc(C2CC23C(=O)Nc2cc(Cl)c(-c4ccc(-c5ccncc5)cc4)cc23)cc1C(=O)O (stereo not shown) [Example 59],,42%,
O=C(O)Cc1cccc(C2CC23C(=O)Nc2cc(Cl)c(-c4ccc(-c5ccncc5)cc4)cc23)c1 (stereo not shown) [Example 61],,,Percentage activation of beta 1 at given concentration (AMPK beta 1; 3 μM): 118% at 3 μM
Cc1ccc(C2CC23C(=O)Nc2cc(Cl)c(-c4ccc(-c5ccc(-n6cncn6)cc5)cc4)cc23)cc1C(=O)O (stereo not shown) [Example 119],,,Percentage activation of beta 1 at given concentration (AMPK beta 1; 1 μM): 99% at 1 μM
Cc1ccc(C2CC23C(=O)Nc2cc(Cl)c(-c4ccc(-c5ccccc5O)cc4)cc23)cc1C(=O)O (stereo not shown) [Example 28],,104%,
Cc1ccc(C2CC23C(=O)Nc2c3cc(-c3ccc(-c4ccc(-n5cccn5)cc4)cc3)c(Cl)c2Cl)cc1C(=O)O (stereo not shown) [Example 153],,,activation at 1 µM (AMPK beta 1; 1 μM): 10%
O=C(O)Cc1ccc(C2CC23C(=O)Nc2cc(Cl)c(-c4ccc(-c5ccc(-n6cncn6)cc5)cc4)cc23)cc1 (stereo not shown) [Example 127],,71%,
Cc1ccc(C2CC23C(=O)Nc2cc(Cl)c(-c4ccc(N5CCC[C@H]5CO)cc4)cc23)cc1C(=O)O (stereo partly shown) [Example 49],,53%,
Cc1ccc(C2CC23C(=O)N(C)c2cc(Cl)c(-c4ccc(-c5ccncc5O)cc4)cc23)cc1C(=O)O (stereo not shown) [Example 41],29%,,
O=C(O)c1ccc(C2CC23C(=O)Nc2cc(Cl)c(-c4ccc(-c5ccccc5O)cc4)cc23)cc1 (stereo not shown) [Example 32],,39%,
Cc1ccc(C2CC23C(=O)Nc2cc(Cl)c(-c4ccc(-c5ccccc5)cn4)cc23)cc1C(=O)O (stereo not shown) [Example 75],54%,,
Cn1cc(C2CC23C(=O)Nc2cc(F)c(-c4ccc(-c5ccccc5O)cc4)cc23)cc1C(=O)O (stereo not shown) [Example 14],,48%,

SMILES,activation at 10 µM (AMPK beta 1; 10 μM),activation at 3 µM (AMPK beta 1; 3 μM),further results
COc1ccc(C2CC23C(=O)Nc2cc(F)c(-c4ccc(-c5ccccc5O)cc4)cc23)cc1C(=O)O (stereo not shown) [Example 11],,64%,
CC(C)c1ccc(C2CC23C(=O)Nc2cc(Cl)c(-c4ccc(-c5ncccc5O)cc4)cc23)cc1C(=O)O (stereo not shown) [Example 23],,63%,
Cn1cc(C2CC23C(=O)Nc2cc(F)c(-c4ccc(-c5ccccc5O)cc4)cc23)cc1C(=O)O (stereo not shown) [Example 13],11%,,
CN1C(=O)C2(CC2c2ccc(C(C)(C)C(=O)O)cc2)c2cc(-c3ccc(-c4ccncc4)cc3)c(Cl)cc21 (stereo not shown) [Example 112],,30%,
Cc1ccc(C2CC23C(=O)N(C)c2cc(Cl)c(-c4ccc(-c5ccncc5)cc4)cc23)cc1C(=O)O (stereo not shown) [Example 100],,134%,
Cc1ccc(C2CC23C(=O)Nc2cc(Cl)c(-c4ccc(-c5ncccc5O)cc4)cc23)cc1C(=O)O (stereo not shown) [Example 20],,99%,
COc1ccc(C2CC23C(=O)Nc2cc(Cl)c(-c4ccc(-c5ccccc5)cn4)cc23)cc1C(=O)O (stereo not shown) [Example 77],17%,,
O=C1Nc2cc(Cl)c(-c3ccc(-c4ccc(-n5cncn5)cc4)cc3)cc2C12CC2c1ccc(-c2nnn[nH]2)cc1 (stereo not shown) [Example 191],,21%,
COc1ccc(C2CC23C(=O)Nc2cc(Cl)c(-c4ccc(-c5ccncc5)cc4)cc23)cc1CC(=O)O (stereo not shown) [Example 70],,59%,
CCN1C(=O)C2(CC2c2ccc(C)c(CC(=O)O)c2)c2cc(-c3ccc(-c4ccncc4)cc3)c(Cl)cc21 (stereo not shown) [Example 113],51%,,
Cc1ccc(C2CC23C(=O)Nc2cc(Cl)c(C#Cc4ccncc4)cc23)cc1C(=O)O (stereo not shown) [Example 79],112%,,
CC(C)c1ccc(C2CC23C(=O)Nc2cc(Cl)c(-c4ccc(N5CCC[C@@H]5CO)cc4)cc23)cc1C(=O)O (stereo partly shown) [Example 50],,68%,
Cc1ccc(C2CC23C(=O)Nc2cc(Cl)c(-c4ccc(-c5ccccc5S(C)(=O)=O)cc4)cc23)cc1C(=O)O (stereo not shown) [Example 87],47%,,
Cc1ccc(C2CC23C(=O)Nc2cc(Cl)c(-c4ccc5[nH]ccc5c4)cc23)cc1C(=O)O (stereo not shown) [Example 94],137%,,
Cc1ccc(C2CC23C(=O)Nc2cc(Cl)c(-c4ccc(-c5ccc(-c6nnn[nH]6)cc5)cc4)cc23)cc1C(=O)O (stereo not shown) [Example 136],,19%,
CCN1C(=O)C2(CC2c2ccc(OC)c(C(=O)O)c2)c2cc(-c3ccc(-c4ccncc4)cc3)c(Cl)cc21 (stereo not shown) [Example 106],,99%,
CC(C)(C(=O)O)c1ccc(C2CC23C(=O)Nc2cc(F)c(-c4ccc(-c5ccc(-n6cncn6)cc5)cc4)cc23)cc1 (stereo not shown) [Example 161],,,Percentage activation of beta 1 at given concentration (AMPK beta 1; 1 μM): 115% at 1 μM
Cc1ccc(C2CC23C(=O)Nc2cc(Cl)c(-c4ccc(-c5ccccc5O)cc4)cc23)cc1C(=O)Nc1nnn[nH]1 (stereo not shown) [Example 183],,19%,
Cc1ccc(C2CC23C(=O)Nc2cc(F)c(-c4ccc(-c5ccc(-n6cncn6)cc5)cc4)cc23)cc1C(=O)O (stereo not shown) [Example 148],,,Percentage activation of beta 1 at given concentration (AMPK beta 1; 1 μM): 127% at 1 μM

# Reference: patent US20160130226A1, “SPIRO-SUBSTITUTED OXINDOLE DERIVATIVES HAVING AMPK ACTIVITY” (BOEHRINGER INGELHEIM INTERNATIONAL GMBH, priority 2013, published 2016)
